# Experimental data taken from patent publication US7229803B2, “Reaction of (di)amines in the presence of a lysine oxidase and of a reducing agent” (BASF Aktiengesellschaft, priority 2001, dated 2007).
# Molecular target: T1, lysine oxidase from Pichia pastoris (Komagataella pastoris, UniProt Q96X16)
# T1 construct: Purification of the Lysine Oxidase from Pichia pastoris; endogenous in cells; host or cells: Pichia pastoris (enzyme purified from the yeast itself)
# T1 sequence (Q96X16 19-787): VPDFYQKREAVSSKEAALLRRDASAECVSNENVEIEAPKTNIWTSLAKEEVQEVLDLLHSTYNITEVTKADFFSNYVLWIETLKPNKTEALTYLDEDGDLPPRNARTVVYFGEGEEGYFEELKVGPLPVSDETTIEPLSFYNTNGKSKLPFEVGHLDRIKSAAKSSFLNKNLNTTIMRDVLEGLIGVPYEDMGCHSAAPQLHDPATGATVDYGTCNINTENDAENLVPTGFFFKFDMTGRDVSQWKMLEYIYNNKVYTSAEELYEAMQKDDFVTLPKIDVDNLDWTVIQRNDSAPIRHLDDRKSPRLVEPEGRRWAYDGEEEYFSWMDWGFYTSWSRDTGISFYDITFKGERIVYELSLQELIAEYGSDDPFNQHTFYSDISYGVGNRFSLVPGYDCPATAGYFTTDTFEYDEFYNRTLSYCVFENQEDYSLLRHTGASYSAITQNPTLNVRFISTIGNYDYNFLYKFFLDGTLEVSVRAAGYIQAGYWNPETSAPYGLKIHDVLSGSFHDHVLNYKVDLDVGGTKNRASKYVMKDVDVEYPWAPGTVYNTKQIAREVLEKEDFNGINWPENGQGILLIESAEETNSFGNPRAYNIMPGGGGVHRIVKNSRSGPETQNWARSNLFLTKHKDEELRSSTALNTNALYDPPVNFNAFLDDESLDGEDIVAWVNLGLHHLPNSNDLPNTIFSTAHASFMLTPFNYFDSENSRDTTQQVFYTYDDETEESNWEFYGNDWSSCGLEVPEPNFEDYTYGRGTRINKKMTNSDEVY
# Experiment: Assays with various substrates: conversion in the presence of lysine oxidase (peroxidase/4-aminoantipyrine/phenol dye, absorption at 500 nm)
# Type: biochemical
# Conditions: substrate 18.75-1200 μmol/l in water, no reducing agent, L-lysine = 100
# Experimental: Measurement series in each case with a concentration of 1 200, 600, 300, 150, 75, 37.5 and 18.75 μmol of (di)amine per 1 l of water were carried out in a microtiter plate. 2 measurement series were carried out in each case; one with enzyme and one without enzyme as reference.
# 100 μl of each of the diluted solutions were taken. To this solution were added 25 μl of lysine oxidase and 40 μl of 35 millimolar phenol solution in 200 millimolar potassium phosphate/potassium diphosphate solution with a pH of 7.5, 40 μl of a 2 millimolar aqueous 4-aminoantipyrine solution and 40 μl of a solution of 0.35 mg of peroxidase (horseradish from Sigma) in 1 ml of water.
# In the reference measurement series, the 25 μl of lysine oxidase were replaced by 25 μl of water. A violet dye was formed by the […] produced on conversion of the substrates and its absorption in the UV at 500 nm was measured (T. Uwajima, O. Terada, Methods in Enzymology 1982, 89, 243 ff.).
row,SMILES,Relative conversion rate compared with L-lysine in % [%]
1,"NCCCCN [1,4-Diaminobutane]",133
2,"NCCCCCCN [1,6-Diaminohexane]",180
3,"NCCCCCCCCN [1,8-Diaminooctane]",197
4,NCc1cccnc1 [3-Aminomethylpyridine],128
5,NCc1ccccc1 [Benzylamine],108
6,NCCCC[C@@H](N)C(=O)O [D-Lysine],100
7,NCC(O)CCC(N)C(=O)O [D/L-5-Hydroxylysine],60
8,NCCCC(N)C(=O)OC(F)F [D/L-Ornithine difluoromethyl ester],39
9,NCCO [Ethanolamine],50
10,NCCN [Ethylenediamine],84
11,CCOC(=O)CN [Glycine ethyl ester],93
12,NCCCC[C@H](N)C(=O)O [L-Lysine],100
13,NCCCNCCCCNCCCN [Spermine],185
14,CCCCN [n-Butylamine],63
15,CC(=O)N[C@@H](CCCCN)C(=O)O [α-N-Acetyllysine],120
